From patent US6946468B1, “3-mercaptopyrrolidines as farnesyl protein transferase inhibitors” (Zeneca Limited, priority 1996, dated 2005)

Target: T1, Farnesyl protein transferase (FPT) (Homo sapiens, UniProt P49354+P49356)
T1 construct: partially purified from human placenta by ammonium sulphate fractionation; from tissue; host or cells: human placenta
Experiment: Farnesyl protein transferase (FPT) inhibition, tritiated farnesyl pyrophosphate incorporation into Kras (ras-CVIM)
Type: biochemical
Conditions: FPT partially purified from human placenta; 300 nM tritiated farnesyl pyrophosphate, 120 nM ras-CVIM, 20 minutes at 37°
Method: Biological activity was tested as follows. Farnesyl protein transferase (FPT) was partially purified from human placenta by ammonium sulphate fractionation followed by a single Q-Sepharose® (Pharmacia, Inc) anion exchange chromatography essentially as described by Ray and Lopez-Belmonte (Ray K P and Lopez-Belmonte J (1992) Biochemical Society Transations 20 494-497). The substrate for FPT was Kras (CVIM C-terminal sequence). The cDNA for oncogenic val12 variant of human c-Ki-ras-2 4B was obtained from the plasmid pSW11-1 (ATCC). This was then subcloned into the polylinker of a suitable expression vector e.g. pIC147. The Kras was obtained after expression in the E. coli strain, BL21. The expression and purification of c-KI-ras-2 4B and the val12 variant in E. coli has also been reported by Lowe et al (Lowe P N et al. J. Biol. Chem. (1991) 266 1672-1678).
Incubations with enzyme contained 300 nM tritiated farnesyl pyrophosphate (DuPont/New England Nuclear), 120 nM ras-CVIM, 50 mM Tris HCl pH 8.0, 5 mM MgCl2, 10 μM ZnCl2, 5 mM dithiotheitol and compounds were added at appropriate concentrations in DMSO (3% final concentration in test and vehicle control). […] Precipitated protein was then collected onto glass fibre filter mats (B) using a Tomte® cell harvester and tritiated label was measured in a Wallac®1204 Betaplate scintillation counter.

IC50: ~420 nM
Structure (SMILES): O=C(Cc1cccnc1)N(CC(c1ccccc1)c1ccccc1)C[C@@H]1NCC[C@@H]1S (relative stereo) [Example 2]
